Experiments:
[1] = DVS (dynamic vapor sorption) hygroscopicity characterization; format: physicochemical
Experimental: DVS refers to dynamic vapor sorption and is determined using SMS DVS Advantage at 25° C., with the humidity change of 50%-95%-0%-95%-50% and the stepping of 10% (5% for the last step) (the specific humidity range is determined in accordance with the corresponding plot, and the methods listed herein are those most commonly used), and the standard for determination is as follow: dm/dt is not more than 0.02%, and Tmax is not more than 360 min.

[2] = Influencing factor experiments (light, high temperature, high humidity, 30 days); format: physicochemical
Experimental: Crystal forms A, B, D and F of the compound of formula (I) were spread and left open to the air, and under conditions of high temperature (40° C. and 60° C.), light (4500 Lux), high humidity (RH 75% and RH 90%), the stability thereof were investigated for a period of 30 days.

## CCC(=O)c1ccc(Cl)cc1-c1cc(=O)n([C@@H](CCOC(C)(C)C)C(=O)Nc2ccc(C(=O)O)cc2)cc1OC [Crystal form B, (S)-4-(4-(tert-butoxy)-2-(4-(5-chloro-2-propionylphenyl)-5-methoxy-2-oxopyridin-1(2H)-yl)butanamido)benzoic acid]
[1]; 25° C. and 60% RH
  mass increase under normal conditions: about 1.155%
[1]; 25° C., 10% RH to 80% RH
  hygroscopicity according to guidelines for drug hygroscopicity test in China Pharmacopoeia (2015 edition): slightly hygroscopic (less than 2% but not less than 0.2%)
  mass increase as the humidity increases: about 1.968%
[1]; 70% RH
  mass increase under accelerated test conditions: about 1.530%
[1]; 90% RH
  mass increase under extreme conditions: about 3.963%
[1]; after DVS detection
  crystal form before and after DVS detection (XRPD comparison): change to crystal form A
[1]; humidity change from 0% to 95%
  desorption process and adsorption process of the sample: basically coincide
[2]; 40° C., 15 days
  % Purity: 98.99%
  Color and trait: Light yellow
[2]; 40° C., 30 days
  % Purity: 98.57%
  Color and trait: Light yellow
[2]; 60° C., 15 days
  % Purity: 99.10%
  Color and trait: Light yellow
[2]; 60° C., 30 days
  % Purity: 98.60%
  Color and trait: Light yellow
[2]; 4500 Lux, 15 days
  % Purity: 99.01%
  Color and trait: Yellow solid
[2]; 4500 Lux, 30 days
  % Purity: 98.71%
  Color and trait: Yellow solid
[2]; Initial condition, day 0
  % Purity: 99.65%
  Color and trait: Light yellow
[2]; RH 75%, 15 days
  % Purity: 99.62%
  % Weight gain: 6.76%
  Color and trait: Light yellow
[2]; RH 75%, 30 days
  % Purity: 99.59%
  % Weight gain: 8.34%
  Color and trait: Light yellow
[2]; RH 90%, 15 days
  % Purity: 99.64%
  % Weight gain: 14.89%
  Color and trait: Light yellow
[2]; RH 90%, 30 days
  % Purity: 99.56%
  % Weight gain: 19.11%
  Color and trait: Light yellow

Reference: patent publication US11225462B2, “Crystal forms of oxypyridine amide derivative and preparation method therefor” (JIANGSU HENGRUI MEDICINE CO., LTD., priority 2018, dated 2022)
